From patent US20140178902A1, “METHOD FOR DETECTING INFECTIONS” (priority 2011, published 2014) come the findings set out here.

The test system of one assay is rabbit Anti-FusC. Nature of the assay: Protein immunoblot of gold nanoparticle conjugates. Format: binding. Particulars: serial dilutions. The procedure: Confirmation of conjugate formation was performed using a protein immunoblot. 4 μl of AuNP-FsC-BSA, Au-BSA and FusC-BSA samples were spotted onto a nitrocellulose membrane strip in serial dilutions (A-E) prepared in 2 mM borate (pH 9.0). Spots were allowed to dry before the strip was blocked for 30 min in Marvel (5% (w/v) in PBS). Membranes were then incubated for 30 min with primary antibody (rabbit Anti-FusC), diluted using blocking buffer (1/1000). Nitrocellulose blots were subsequently washed (2×5 min) in blocking solution and then incubated with a 1/1000 dilution of anti-rabbit IgG peroxidase-conjugated secondary antibody (Sigma-Aldrich), shaking for 30 min at room temperature. The nitrocellulose membranes were then washed extensively (2×5 min) in blocking solution and rinsed (2×5 min) with PBS. Immunoreactive samples were visualized using Pierce ECL Chemiluminescent Substrate (Fischer Scientific) for the detection of horseradish peroxidase.

The test system of assay [1] is antibody (anti-PSC1A, rabbit antisera). Nature of the assay: Competitive ELISA: free FusC against antibody recognition of conjugate PSC2A. In kind it is binding. Particulars: Free FusC 6.5 μg/ml. Here is the method:
FIG. 5: Competitive ELISA detection of TAFC and FusC. A. Immobilised antigen was an equimolar combination of PSC2B and PSC3B (acetylated & non-acetylated cBSA-SMCC-FusC^Fe3+), coated at 2.5 μg/ml (250 ng/well). Murine antisera was used (1/1000) which was raised against KLH-sHSAB-ih/cTAFC(PSC1A & PSC1B); Competition antigens were either FusC or cTAFC (0-20 μg/ml, respectively). B. FusC detection by ELISA. Free FusC 6.5 μg/ml prevents antibody (anti-PSC1A, rabbit antisera) recognition of conjugate PSC2A (cBSA-SATA-SMCC-FusC).
Microtitre plates (Nunc Maxisorp™ available from Nunc A/S, Roskilde, Denmark) were coated with either FusC (range used for optimisation: 0-66 μg/ml) or an equimolar combination of PSC2B/PSC3B conjugates (range used for optimisation: 0-10 μg/ml) in 50 mM sodium carbonate pH 9.4 for 16 hr (100 μl/well). […] Finally the absorbance was measured at 450/620 nm using a Synergy plate reader and standard curves of A450/620 nm versus log FusC concentration (0-100 μg/ml (or 0-20 μg/ml TAFC) constructed, from which the concentration of FusC in normal clinical specimens, of animal and human origin, was computed.
For example, it was observed that FusC or TAFC, respectively, could be detected by ELISA using murine antisera [anti-KLH-sHSAB-ihTAFC or cTAFC] […]

Take “BSA-AuNP: negative control BSA gold nanoparticle conjugate”: the “reactivity in immunoblot with rabbit Anti-FusC” value with rabbit Anti-FusC was “No reactivity is visible”.
Consider `C/C1=C/C(=O)N(O)CCCC(N)C(=O)OCC/C(C)=C\C(=O)N(O)CCCC(N)C(=O)OCC/C(C)=C\C(=O)N(O)CCCC(N)C(=O)OCC1` (centres unmarked) [FusC, fusarinine C], for which, in assay [1], the “antibody recognition of conjugate PSC2A (cBSA-SATA-SMCC-FusC)” value is reported as “prevents”.
